Patent publication US20080311126A1, “Antisense Oligonucleotides Directed to Ribonucleotide Reducatase R2 and Uses Thereof in Combination Therapies for the Treatment of Cancer” (Genesense Technologies, Inc, priority 2004, published 2008)
Oligonucleotides are written 5' to 3', each unit as a sugar letter and its base; * is a phosphorothioate linkage, no mark a phosphodiester; rarer units and linkages stand in square brackets, end groups in braces. Plain capitals give the bases only. d = 2'-deoxy (DNA)

Columns and labels:
Assay in all cases: Relative colony forming efficiency (Example 17, Table 13)
Assay type in all cases: cell-based, human
[1] = system: T24 bladder cell carcinoma; settings: averages of 2-8 determinations
Experimental: (§1) Colony forming efficiency was determined using standard protocols. […] The test oligonucleotides were added to cell cultures in the presence of 2.5 μg of DOTMA/DOPE (Lipofectin; Life Technologies, Inc.) for four hours. The oligonucleotide was tested at 0.2 μM unless otherwise indicated. Controls were the cultures treated with lipofectin but without the oligonucleotide. […] Surviving cells were visualized by methylene blue staining, and colonies were scored. In some experiments cell aliquots were removed from the culture and viability was determined using the trypan blue exclusion test. Results were analyzed as percent of surviving cells compared to control cells. To test the antisense effects of many of these sequences as phosphorthioate deoxyribonucleotides, they were examined in relative colony forming experiments conducted as described in Example 16 with a series of human tumour cell lines. The results (shown as % inhibition of colony forming ability) obtained with cancer cells derived from the bladder, breast, lung, colon, pancreas, prostate, liver and cervix, are shown in Table 13. The specific cell lines employed are as follows: […]

[2] = system: MDA PaCa-2 pancreatic cell carcinoma; settings: MIA PaCa-2 pancreatic cell carcinoma; averages of 2-8 determinations
Experimental: as §1

[3] = system: PC-3 prostrate cell adenocarcinoma; settings: averages of 2-8 determinations
Experimental: as §1

A549 lung cell carcinoma = settings: averages of 2-8 determinations
Experimental: as §1

[4] = system: MDA-MB-231 breast cell adenocarcinoma; settings: averages of 2-8 determinations
Experimental: as §1

[5] = system: HepG2 hepatocellular carcinoma; settings: averages of 2-8 determinations
Experimental: as §1

[6] = system: HCT116 colon cell carcinoma; settings: averages of 2-8 determinations
Experimental: as §1

| Sequence | Reduced relative colony forming efficiency, T24 (% inhibition of colony forming ability) [1] | Reduced relative colony forming efficiency, MIA PaCa-2 (% inhibition of colony forming ability) [2] | Reduced relative colony forming efficiency, PC-3 (% inhibition of colony forming ability) [3] | Reduced relative colony forming efficiency, A549 (% inhibition of colony forming ability) (A549 lung cell carcinoma) | Reduced relative colony forming efficiency, MDA-MB-231 (% inhibition of colony forming ability) [4] | Reduced relative colony forming efficiency, HepG2 (% inhibition of colony forming ability) [5] | Reduced relative colony forming efficiency, HCT116 (% inhibition of colony forming ability) [6] |
| --- | --- | --- | --- | --- | --- | --- | --- |
| AAACGGCTTCTCACACATAT (antisense dA*dA*dA*dC*dG*dG*dC*dT*dT*dC*dT*dC*dA*dC*dA*dC*dA*dT*dA*dT) [AS-II-2151-20] | 79.83% | 62.15% | 84.86% | 79.19% | 95.14% |  |  |
| AACCGGAAAAGAAAATGCCT (antisense dA*dA*dC*dC*dG*dG*dA*dA*dA*dA*dG*dA*dA*dA*dA*dT*dG*dC*dC*dT) [AS-II-890-20] | 82.07% | 66.02% | 87.93% | 81.6% | 88.2% |  |  |
| ACCCTTCCCATTGGCTGCGC (antisense dA*dC*dC*dC*dT*dT*dC*dC*dC*dA*dT*dT*dG*dG*dC*dT*dG*dC*dG*dC) [AS-II-6-20] | 73.55% | 95.15% | 59.21% |  | 85.4% | 97.89% |  |
| ATTAAAATCTGCGTTGAAGC (antisense dA*dT*dT*dA*dA*dA*dA*dT*dC*dT*dG*dC*dG*dT*dT*dG*dA*dA*dG*dC) [AS-II-1700-20] | 70.94% | 34.52% | 90.63% | 77.28% | 30.75% |  |  |
| CACACAACCTACTTACACCA (antisense dC*dA*dC*dA*dC*dA*dA*dC*dC*dT*dA*dC*dT*dT*dA*dC*dA*dC*dC*dA) [AS-II-2372-20] | 61.13% | 94.36% | 86.06% | 96.41% | 90.09% |  | 64.7% |
| CAGAATATCGACGCAAAAGA (dC*dA*dG*dA*dA*dT*dA*dT*dC*dG*dA*dC*dG*dC*dA*dA*dA*dA*dG*dA) [AS-II-909-20] | 78.57% | 46.13% | 84.86% | 78.68% | 45.96% |  |  |
| CGGGTCCGTGATGGGCGCGA (antisense dC*dG*dG*dG*dT*dC*dC*dG*dT*dG*dA*dT*dG*dG*dG*dC*dG*dC*dG*dA) [AS-II-217-20] | 65.02% | 87.38% | 87.41% |  | 52.7% | 99.55% | 61.85% |
| GACATCACTCCCATCCTCTG (antisense dG*dA*dC*dA*dT*dC*dA*dC*dT*dC*dC*dC*dA*dT*dC*dC*dT*dC*dT*dG) [AS-II-1302-20] | 70.56% | 23.86% | 79.01% | 93.17% | 92.2% |  | 71.98% |
| GGCCCAGATCACCCCTAAAT (antisense dG*dG*dC*dC*dC*dA*dG*dA*dT*dC*dA*dC*dC*dC*dC*dT*dA*dA*dA*dT) [AS-II-2128-20] | 83.74% | 39.23% | 88.89% | 87.31% | 91.3% |  |  |
| GGGCACATCTTCAGTTCATT (antisense dG*dG*dG*dC*dA*dC*dA*dT*dC*dT*dT*dC*dA*dG*dT*dT*dC*dA*dT*dT) [AS-II-1364-20] | 66.59% | 59.34% | 79.01% | 95.59% | 93.87% |  | 77.29% |
| TATCGCCGCCGTGAGTACAA (antisense dT*dA*dT*dC*dG*dC*dC*dG*dC*dC*dG*dT*dG*dA*dG*dT*dA*dC*dA*dA) [AS-II-1768-20] | 74.56% | 60.36% | 86.36% | 86.8% | 91.56% |  |  |
| TCGCCTACTCTCTTCTCAAA (antisense dT*dC*dG*dC*dC*dT*dA*dC*dT*dC*dT*dC*dT*dT*dC*dT*dC*dA*dA*dA) [AS-II-1278-20] | 65.42% | 57.05% | 85.31% |  | 90.68% |  |  |
| TGCCTCCGACCCTTCCCATT (antisense dT*dG*dC*dC*dT*dC*dC*dG*dA*dC*dC*dC*dT*dT*dC*dC*dC*dA*dT*dT) [AS-II-14-20] | 77.59% | 47.93% | 92.76% |  | 91.24% | 88.4% |  |
| TGGCACCAACTGACTAATAT (antisense dT*dG*dG*dC*dA*dC*dC*dA*dA*dC*dT*dG*dA*dC*dT*dA*dA*dT*dA*dT) [AS-II-1976-20] |  |  | 88.16% |  | 89.6% |  |  |
| TGGCTGTGCTGGTTAAAGGA (antisense dT*dG*dG*dC*dT*dG*dT*dG*dC*dT*dG*dG*dT*dT*dA*dA*dA*dG*dG*dA) [AS-II-1659-20] | 74.09% | 42.54% | 81.56% | 54.7% | 42.86% |  |  |
| TTAGTGGTCAGGAGAATGTA (antisense dT*dT*dA*dG*dT*dG*dG*dT*dC*dA*dG*dG*dA*dG*dA*dA*dT*dG*dT*dA) [AS-II-1819-20] | 53.74% | 20.02% | 85.46% |  | 90.68% | 83.89% |  |
| TTCATGGTGTGGCTAGTTGG (antisense dT*dT*dC*dA*dT*dG*dG*dT*dG*dT*dG*dG*dC*dT*dA*dG*dT*dT*dG*dG) [AS-II-1438-20] | 43.7% | 42.13% | 83.96% | 51.27% | 69.06% |  |  |
| TTTTAACTGGCTGTGCTGGT (antisense dT*dT*dT*dT*dA*dA*dC*dT*dG*dG*dC*dT*dG*dT*dG*dC*dT*dG*dG*dT) [AS-II-1666-20] | 71.71% | 49.72% | 86.06% | 54.82% | 26.71% |  |  |
